Measured values: US20260265244A1, “HETEROCYCLIC COMPOUNDS AS STING ANTAGONISTS” (Boehringer Ingelheim International GmbH, priority 2022, published 2026)
pIC50: −log10 of the molar value.

Columns and labels:
human STING WT (R232) = target: T1, human STING WT (R232) (Homo sapiens, UniProt Q86WV6, H232R); assay: Human STING HTRF binding assay (competitive, Cisbio 64BDSTGPEG)
T1 construct: purchased Cisbio 64BDSTGPEG
Description: Binders to human STING WT (R232) were identified using a competitive HTRF assay format (Cisbio 64BDSTGPEG), which uses d2-labeled STING ligand, a 6His (SEQ ID NO: 2) tagged human STING protein, and an anti 6His (SEQ ID NO: 2) Cryptate-labeled antibody. Compounds compete with the STING ligand-d2 and thereby prevents FRET from occurring, which can be measured by an EnVision™ reader (PerkinElmer).
Assay method: Compounds were delivered as 10 mM DMSO solution, serially diluted by an Agilent Bravo Workstation and transferred to the 384 well assay plate (Perkin Elmer #6005359) using a Cybiwell dispenser. Typically, 8 concentrations were used with the highest concentration at 10 μM or 1 μM in the final assay volume followed by ~1:5 dilution steps. DMSO concentration was set to 1% in the final assay volume. The 384 well assay plate contained 20 test compounds and DMSO in column 23 and 24. A cGAMP standard dilution row was prepared according to the manufacturer and transferred to each assay plate. After transfer of compound solution or dilution buffer for negative (high) and positive (low) controls, 5 μl of the human STING protein (cyclic binding domain (residues 138-379) of the WT R232 human version, fused to a 6 His tag (SEQ ID NO: 2) at the Nter part; 1:50 dilution in detection buffer) were dispensed to all wells except of the positive control, which received detection buffer only. Plates were the centrifuged for 20 sec at 1000 rpm. After that, 10 μl of Anti-6His-Cryptate antibody/Sting ligand-d2 mix was added to all wells using a Multidrop combi dispenser, followed by another sec/1000 rpm centrifugation step. After an incubation of the plates for 180 min at room temperature, […] at […] (HTRF ratio) was measured using an Envison Reader (PerkinElmer).
Data evaluation and calculation: For data evaluation and calculation, HTRF ratios were calibrated using the cGAMP standard curve. After that, the measurement of the low control was set as 0% control and the measurement of the high control was set as 100% control. The IC50 values were calculated using the standard 4 parameter logistic regression formula. Calculation: [y=(a−d)/(1+(x/c)^b)+d], a=low value, d=high value; x=conc M; c=IC50 M; b=slope;

[1] = system: STING inhibition in human whole blood (IFNα2α production); assay: Human whole blood assay (HWBA): cGAMP-stimulated IFNα2α production; type: cell-based; conditions: Homo sapiens
Procedure, shortened: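 Na-citrate human whole blood from ≥3 healthy donors, preincubated 60 min at room temperature with compound (8 concentrations, top 10 μM, ~1:5 steps, 0.1% DMSO), then stimulated with cGAMP and incubated 22 h at 37 °C. Plasma IFNα2α measured by MSD immunoassay; % control versus stimulated/unstimulated wells, IC50 by 4-parameter logistic fit.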

T1 sequence (Q86WV6 138-379 H232R): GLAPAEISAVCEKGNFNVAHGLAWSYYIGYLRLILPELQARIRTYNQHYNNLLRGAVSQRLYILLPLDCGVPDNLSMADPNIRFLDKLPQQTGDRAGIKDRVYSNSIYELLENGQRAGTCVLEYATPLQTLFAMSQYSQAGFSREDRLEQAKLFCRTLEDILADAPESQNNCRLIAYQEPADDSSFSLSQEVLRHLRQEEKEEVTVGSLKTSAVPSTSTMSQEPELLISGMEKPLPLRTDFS

Q: Which results are given for `Cn1cc2cc(-c3nc(-c4cccc5nn(C[C@H](O)c6ccccc6)cc45)c(C4CC4)n3C)c(OC(F)F)cc2n1` [Example 34, (1R)-2-(4-{5-cyclopropyl-2-[6-(difluoromethoxy)-2-methyl-2H-indazol-5-yl]-1-methyl-1H-imidazol-4-yl}-2H-indazol-2-yl)-1-phenylethan-1-ol]?
A: pIC50 (human STING WT (R232)): 8.15; pIC50 [1]: 6.92

Q: How did the pIC50 (human STING WT (R232)) turn out when `Cc1c(C2CC2)c(-c2c(F)ccc3nn(C[C@H](O)c4ccccc4)cc23)nn1-c1cc2cn(C)nc2nc1C1CC1` [Example 35, (1R)-2-[4-(4-cyclopropyl-1-{6-cyclopropyl-2-methyl-2H-pyrazolo[3,4-b]pyridin-5-yl}-5-methyl-1H-pyrazol-3-yl)-5-fluoro-2H-indazol-2-yl]-1-phenylethan-1-ol] was run?
A: 7.71

Q: And the pIC50 [1]?
A: 6.89

Q: With `CNC(=O)CO[C@@H](Cn1cc2c(-c3nn(-c4cc5cn(C)nc5nc4C)c(C)c3C(C)C)cccc2n1)c1ccccc1` [Example 36, 2-[(1R)-2-[4-(1-{2,6-dimethyl-2H-pyrazolo[3,4-b]pyridin-5-yl)-5-methyl-4-(propan-2-yl)-1H-pyrazol-3-yl)-2H-indazol-2-yl]-1-phenylethoxy]-N-methylacetamide] as the compound, how does the pIC50 (human STING WT (R232)) read?
A: 7.84

Q: What about the pIC50 [1] of the same compound?
A: 6.89

Q: With `Cc1nc2nn(CCO)cc2cc1-n1nc(-c2cccc3nn(C[C@H](O)c4ccccc4)cc23)c(C(C)C)c1C` [Example 37, (1R)-2-(4-{1-[2-(2-hydroxyethyl)-6-methyl-2H-pyrazolo[3,4-b]pyridin-5-yl]-5-methyl-4-(propan-2-yl)-1H-pyrazol-3-yl}-2H-indazol-2-yl)-1-phenylethan-1-ol] as the compound, how does the pIC50 (human STING WT (R232)) read?
A: 8.26

Q: What about the pIC50 [1] of the same compound?
A: 6.89

Q: With `Cc1nc2nn(CCN(C)C)cc2cc1-n1nc(-c2cccc3nn(C[C@H](O)c4ccccc4)cc23)c(C(C)C)c1C` [Example 39, (1R)-2-[4-(1-{2-[2-(dimethylamino)ethyl]-6-methyl-2H-pyrazolo[3,4-b]pyridin-5-yl}-5-methyl-4-(propan-2-yl)-1H-pyrazol-3-yl)-2H-indazol-2-yl]-1-phenylethan-1-ol] as the compound, how does the pIC50 (human STING WT (R232)) read?
A: 7.81

Q: And the pIC50 [1]?
A: 6.89

Q: Which results are given for `Cc1nc2nn(CCCN3CCC(F)(F)C3)cc2cc1-n1nc(-c2cccc3nn(C[C@H](O)c4ccccc4)cc23)c(C(C)C)c1C` [Example 40, (1R)-2-[4-(1-{2-[3-(3,3-difluoropyrrolidin-1-yl)propyl]-6-methyl-2H-pyrazolo[3,4-b]pyridin-5-yl}-5-methyl-4-(propan-2-yl)-1H-pyrazol-3-yl)-2H-indazol-2-yl]-1-phenylethan-1-ol]?
A: pIC50 (human STING WT (R232)): 7.55; pIC50 [1]: 6.85

Q: With `Cn1cc2cc(-c3nc(-c4cccc5nn(C[C@H](O)c6ccc(OCCC(C)(C)O)cc6)cc45)c(C4CC4)n3C)c(C3CC3)nc2n1` [Example 41, 4-{4-[(1R)-2-[4-(5-cyclopropyl-2-{6-cyclopropyl-2-methyl-2H-pyrazolo[3,4-b]pyridin-5-yl}-1-methyl-1H-imidazol-4-yl)-2H-indazol-2-yl]-1-hydroxyethyl]phenoxy}-2-methylbutan-2-ol] as the compound, how does the pIC50 (human STING WT (R232)) read?
A: 8.19

Q: What about the pIC50 [1] of the same compound?
A: 6.85

Q: With `CNCc1nc2nn(C)cc2cc1-n1nc(-c2cccc3nn(C[C@H](O)c4ccccc4)cc23)c(C(C)C)c1C` [Example 42, (1R)-2-[4-(5-methyl-1-{2-methyl-6-[(methylamino)methyl]-2H-pyrazolo[3,4-b]pyridin-5-yl}-4-(propan-2-yl)-1H-pyrazol-3-yl)-2H-indazol-2-yl]-1-phenylethan-1-ol] as the compound, how does the pIC50 (human STING WT (R232)) read?
A: 7.78

Q: What about the pIC50 [1] of the same compound?
A: 6.85

Q: How did the pIC50 (human STING WT (R232)) turn out when `Cc1nc2nn(C)cc2cc1-n1nc(-c2cccc3nn(C[C@H](O)c4ccc(F)c(F)c4)cc23)c(C(C)C)c1C` [Example 44, (1R)-1-(3,4-difluorophenyl)-2-[4-(1-{2,6-dimethyl-2H-pyrazolo[3,4-b]pyridin-5-yl}-5-methyl-4-(propan-2-yl)-1H-pyrazol-3-yl)-2H-indazol-2-yl]ethan-1-ol] was run?
A: 7.77

Q: And the pIC50 [1]?
A: 6.85

Q: With `Cc1nc2nn(CCCCN3CCN(C)CC3)cc2cc1-n1nc(-c2cccc3nn(C[C@H](O)c4ccccc4)cc23)c(C(C)C)c1C` [Example 45, (1R)-2-[4-(5-methyl-1-{6-methyl-2-[4-(4-methylpiperazin-1-yl)butyl]-2H-pyrazolo[3,4-b]pyridin-5-yl}-4-(propan-2-yl)-1H-pyrazol-3-yl)-2H-indazol-2-yl]-1-phenylethan-1-ol] as the compound, how does the pIC50 (human STING WT (R232)) read?
A: 7.74

Q: And the pIC50 [1]?
A: 6.85

Q: How did the pIC50 (human STING WT (R232)) turn out when `Cc1nc2nn(C)cc2cc1-n1nc(-c2cccc3nn(C[C@H](O)c4ccc(F)cc4)cc23)c(C(C)C)c1C` [Example 46, (1R)-2-[4-(1-{2,6-dimethyl-2H-pyrazolo[3,4-b]pyridin-5-yl}-5-methyl-4-(propan-2-yl)-1H-pyrazol-3-yl)-2H-indazol-2-yl]-1-(4-fluorophenyl)ethan-1-ol] was run?
A: 7.82

Q: What about the pIC50 [1] of the same compound?
A: 6.85

Q: With `Cc1c(C(C)C)c(-c2cccc3nn(C[C@H](O)c4ccccc4)cc23)nn1-c1cc2cn(C)nc2nc1C1CCOC1` (stereo partly drawn) [Example 47, (1R)-2-(4-{5-methyl-1-[2-methyl-6-(oxolan-3-yl)-2H-pyrazolo[3,4-b]pyridin-5-yl]-4-(propan-2-yl)-1H-pyrazol-3-yl}-2H-indazol-2-yl)-1-phenylethan-1-ol] as the compound, how does the pIC50 (human STING WT (R232)) read?
A: 7.92

Q: And the pIC50 [1]?
A: 6.82

Q: `CCCn1cc2cc(-c3nc(-c4cccc5nn(CC(F)(F)c6ccccc6)cc45)c(C4CC4)n3C)c(C3CC3)nc2n1` [Example 48, 4-(5-cyclopropyl-2-{6-cyclopropyl-2-propyl-2H-pyrazolo[3,4-b]pyridin-5-yl}-1-methyl-1H-imidazol-4-yl)-2-(2,2-difluoro-2-phenylethyl)-2H-indazole] was tested. Which pIC50 (human STING WT (R232)) did it give?
A: 7.64

Q: And the pIC50 [1]?
A: 6.82

Q: With `Cc1nc2nn(CCCN3CCOCC3)cc2cc1-n1nc(-c2cccc3nn(C[C@H](F)c4ccccc4)cc23)c(C(C)C)c1C` [Example 49, 2-[(2R)-2-fluoro-2-phenylethyl]-4-(5-methyl-1-{6-methyl-2-[3-(morpholin-4-yl)propyl]-2H-pyrazolo[3,4-b]pyridin-5-yl}-4-(propan-2-yl)-1H-pyrazol-3-yl)-2H-indazole] as the compound, how does the pIC50 (human STING WT (R232)) read?
A: 7.65

Q: And the pIC50 [1]?
A: 6.80

Q: `Cc1c(C(C)C)c(-c2cccc3nn(C[C@H](O)c4ccccc4)cc23)nn1-c1cc2cn(C)nc2[n+]([O-])c1C1CC1` [Example 50, 6-cyclopropyl-5-(3-{2-[(2R)-2-hydroxy-2-phenylethyl]-2H-indazol-4-yl}-5-methyl-4-(propan-2-yl)-1H-pyrazol-1-yl)-2-methyl-2H-pyrazolo[3,4-b]pyridin-7-ium-7-olate] was tested. Which pIC50 (human STING WT (R232)) did it give?
A: 7.79

Q: And the pIC50 [1]?
A: 6.80

Q: What does the source list for `Cc1c(C(C)C)c(-c2cccc3nn(C[C@H](O)c4ccccc4)cc23)nn1-c1cc2cn(C)nc2nc1C1(F)CC1` [Example 51, (1R)-2-(4-{1-[6-(1-fluorocyclopropyl)-2-methyl-2H-pyrazolo[3,4-b]pyridin-5-yl]-5-methyl-4-(propan-2-yl)-1H-pyrazol-3-yl}-2H-indazol-2-yl)-1-phenylethan-1-ol]?
A: pIC50 (human STING WT (R232)): 7.77; pIC50 [1]: 6.77

Q: How did the pIC50 (human STING WT (R232)) turn out when `CO[C@@H](Cn1cc2c(-c3nn(-c4cc5cn(C)nc5nc4C)c(C)c3C(C)C)cccc2n1)c1ccccc1` [Example 52, 4-(1-{2,6-dimethyl-2H-pyrazolo[3,4-b]pyridin-5-yl}-5-methyl-4-(propan-2-yl)-1H-pyrazol-3-yl)-2-[(2R)-2-methoxy-2-phenylethyl]-2H-indazole] was run?
A: 7.70

Q: What about the pIC50 [1] of the same compound?
A: 6.74
